Data: patent publication US20260256889A1, “Pharmaceutical formulations comprising a cyclodextrin” (Novo Nordisk A/S, priority 2021, published 2026)

Assay: Optimal pH (chemical and physical stability across the pH range)
Format: physicochemical
From the text: (§1) The person skilled in the art can easily find the amylin receptor agonist's optimal pH by testing its chemical and physical stability, in an aqueous solution essentially consisting of the amylin receptor agonist, a buffer and water for injection, across the pH range.
as §1, with “GLP-1” for “amylin”, “range. The physical stability of the GLP-1 receptor agonist may be a reflection of its isoelectric point, which may coincide with the pH where poorest physical stability might be expected.” for “range.”

- pH at which optimally stable: 7.4
Substance: N^6.26-{18-[N-(17-carboxyheptadecanoyl)-L-γ-glutamyl]-10-oxo-3,6, 12, 15-tetraoxa-9,18-diazaoctadecanoyl}-[8-(2-amino-2-propanoic acid),34-L-arginine] human glucagon-like peptide 1 (7-37) [Semaglutide]
